Assays:
[1] = Body composition and body fat analysis after CLA, high protein diet or exercise treatment; format: in vivo, Sprague Dawley rats; conditions: rats
Excerpt: (§1) Four-week old male Sprague Dawley rats were allowed to acclimate for two weeks on a control diet comprising AIN-93M (American Institute of Nutrition purified diet formula for maintenance of mature rodents). Rats were divided into four groups of 12. Group 1 was fed the control diet supplemented with CLA (Table 1). Group 2 was fed a modified diet increased in protein and decreased in carbohydrate (Table 1). Group 3 was fed the control diet, and was given the opportunity to engage in supplemental exercise. Specifically, a running wheel was placed in the cage of each rat in group 3, and daily use of the wheel was monitored by recording each turn of the wheel using a sensor connected to a computer. Group 4 was fed the control diet (Table 1).
(§2) Measurements were taken at 7 and 60 days after initiation of the feeding or exercise protocols. At the completion of the 60-day feeding protocol, all animals were sacrificed and analyses were performed.
Body composition analyses were performed on the test animals.

[2] = Biochemical analyses of blood (fasting glucose, glucagon, insulin); format: in vivo, Sprague Dawley rats; conditions: for Fasting blood glucagon / Fasting blood glucose / Fasting blood insulin: rats
Excerpt: as §1, §2

[3] = after 60 days, compared with the control diet and the exercise treatment

conjugated linoleic acid [CLA]
Body fat ([1]; 60 days, compared with the Control group): reduced body fat | Retroperitoneal fat ([1]; following 60 days of treatment): 10.07 g | Total fat pad ([1]; following 60 days of treatment): 31.80 g | Blood glucose level [2, 3]: reduced blood glucose level | Blood insulin [2, 3]: reduced blood insulin | Fasting blood glucagon ([2]; Day 7): 111.65 pg/mL | Fasting blood glucose ([2]; Day 7): 10.53 mmol/L | Fasting blood insulin ([2]; Day 7): 233.58 pmol/L | Fasting blood glucagon ([2]; Day 60): 120.77 pg/mL | Fasting blood glucose ([2]; Day 60): 11.08 mmol/L | Fasting blood insulin ([2]; Day 60): 172.66 pmol/L
